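Five compound concentrations were applied to cells in 96-well plates for 48 hours; endpoints were derived by simple linear interpolation of the resulting dose-response curve. At the TGI there is no net growth.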
How the values were obtained:
Assay in all cases: NCI-60 cell line screen, 48 h
[1] = tested on: MDA-MB-435
[2] = tested on: HT29 colon
[3] = tested on: 786-0 renal
[4] = tested on: NCI-H23 lung
[5] = tested on: SF-295 CNS
[6] = tested on: HCT-15 colon
[7] = tested on: MDA-N
[8] = tested on: NCI/ADR-RES ovarian
[9] = tested on: HCC-2998 colon
[10] = tested on: DU-145 prostate
[11] = tested on: SF-268 CNS
[12] = tested on: SW-620 colon
[13] = tested on: U251 CNS
[14] = tested on: HCT-116 colon
[15] = tested on: ACHN renal
[16] = tested on: A498 renal
[17] = tested on: IGROV1 ovarian
[18] = tested on: MALME-3M melanoma
[19] = tested on: M14 melanoma
[20] = tested on: MCF7 breast
[21] = tested on: T-47D breast
[22] = tested on: NCI-H226 lung
[23] = tested on: KM12 colon
[24] = tested on: SK-OV-3 ovarian
[25] = tested on: EKVX NSCLC
[26] = tested on: SK-MEL-2 melanoma
[27] = tested on: UACC-257 melanoma
[28] = tested on: PC-3 prostate
[29] = tested on: TK-10 renal
[30] = tested on: COLO 205 colon
[31] = tested on: SNB-75 CNS
[32] = tested on: MDA-MB-231 breast
[33] = tested on: UACC-62 melanoma
[34] = tested on: LOX IMVI melanoma
[35] = tested on: NCI-H460 lung
[36] = tested on: OVCAR-5 ovarian
[37] = tested on: HOP-62 NSCLC
[38] = tested on: HOP-92 NSCLC
[39] = tested on: OVCAR-3 ovarian
[40] = tested on: BT-549 breast
[41] = tested on: NCI-H522 lung
[42] = tested on: CAKI-1 renal
[43] = tested on: OVCAR-4 ovarian
[44] = tested on: A549 NSCLC
[45] = tested on: UO-31 renal
[46] = tested on: SK-MEL-5 melanoma
[47] = tested on: SNB-19 CNS
[48] = tested on: HS 578T breast
[49] = tested on: SN12C renal
[50] = tested on: OVCAR-8 ovarian
[51] = tested on: CCRF-CEM leukemia
[52] = tested on: RPMI-8226 leukemia
[53] = tested on: SK-MEL-28 melanoma

## Brc1cccc(Nc2ncnc3sc4c(c23)CCC2(C4)OCCO2)c1
[1]
  TGI: 87 µM
[2]
  TGI: > 100 µM
[3]
  TGI: > 100 µM
[4]
  TGI: > 100 µM
[5]
  TGI: > 100 µM
[6]
  TGI: > 100 µM
[7]
  TGI: > 100 µM
[8]
  TGI: 76.4 µM
[9]
  TGI: 72.1 µM
[10]
  TGI: 50.1 µM
[11]
  TGI: > 100 µM
[12]
  TGI: 28.9 µM
[13]
  TGI: > 100 µM
[14]
  TGI: > 100 µM
[15]
  TGI: > 100 µM
[16]
  TGI: 42 µM
[17]
  TGI: 30.9 µM
[18]
  TGI: > 100 µM
[19]
  TGI: 68.6 µM
[20]
  TGI: > 100 µM
[21]
  TGI: 40.9 µM
[22]
  TGI: 77.6 µM
[23]
  TGI: 80.4 µM
[24]
  TGI: > 100 µM
[25]
  TGI: > 100 µM
[26]
  TGI: 79.7 µM
[27]
  TGI: 91.4 µM
[28]
  TGI: > 100 µM
[29]
  TGI: 68.9 µM
[30]
  TGI: 35.6 µM
[31]
  TGI: 80.9 µM
[32]
  TGI: > 100 µM
[33]
  TGI: 70.5 µM
[34]
  TGI: 40.9 µM
[35]
  TGI: > 100 µM
[36]
  TGI: > 100 µM
[37]
  TGI: > 100 µM
[38]
  TGI: 48.6 µM
[39]
  TGI: > 100 µM
[40]
  TGI: 75.2 µM
[41]
  TGI: 33.8 µM
[42]
  TGI: > 100 µM
[43]
  TGI: 94.5 µM
[44]
  TGI: > 100 µM
[45]
  TGI: > 100 µM
[46]
  TGI: 32.3 µM
[47]
  TGI: > 100 µM
[48]
  TGI: > 100 µM
[49]
  TGI: > 100 µM
[50]
  TGI: > 100 µM

## COc1ccc(N2C(=O)C3c4[nH]c5c(C)cccc5c4C4CCC(c5ccccc5)CC4C3C2=O)cc1 (stereo not drawn)
[1]
  TGI: 34.3 µM
[2]
  TGI: 21.3 µM
[3]
  TGI: > 100 µM
[4]
  TGI: 67.7 µM
[5]
  TGI: 40.2 µM
[6]
  TGI: > 100 µM
[7]
  TGI: 34.3 µM
[8]
  TGI: 66.4 µM
[10]
  TGI: 31.1 µM
[11]
  TGI: 20.3 µM
[12]
  TGI: 40.5 µM
[14]
  TGI: > 100 µM
[15]
  TGI: 43.5 µM
[16]
  TGI: 39.1 µM
[17]
  TGI: 33.5 µM
[19]
  TGI: 26 µM
[20]
  TGI: 21.7 µM
[21]
  TGI: 28.6 µM
[22]
  TGI: 46.3 µM
[23]
  TGI: 42.2 µM
[24]
  TGI: 34 µM
[25]
  TGI: 63.4 µM
[26]
  TGI: 60.8 µM
[27]
  TGI: 51.2 µM
[28]
  TGI: 28.2 µM
[29]
  TGI: > 100 µM
[30]
  TGI: 83.9 µM
[51]
  TGI: 4.41 µM
[31]
  TGI: 24.4 µM
[32]
  TGI: 78.2 µM
[34]
  TGI: > 100 µM
[35]
  TGI: 18.2 µM
[36]
  TGI: 28.8 µM
[37]
  TGI: 27.3 µM
[38]
  TGI: 41 µM
[39]
  TGI: 60.4 µM
[40]
  TGI: 47.8 µM
[41]
  TGI: 16.7 µM
[42]
  TGI: 39.3 µM
[52]
  TGI: 30.4 µM
[43]
  TGI: 26.6 µM
[44]
  TGI: 24.2 µM
[45]
  TGI: 43.3 µM
[47]
  TGI: 76.3 µM
[53]
  TGI: 27.9 µM
[48]
  TGI: 28.6 µM
[49]
  TGI: 59.5 µM
[50]
  TGI: 36.8 µM

Reference: PubChem BioAssay (NCI)
